Assay results as given in patent publication US9056835B2, “LPA2 receptor-specific benzoic acid derivatives” (University of Tennessee Research Foundation, priority 2012, dated 2015).

Legend:
LPA4 = target: T1, LPA4 (Homo sapiens, UniProt Q99677); test: LPA receptor-mediated Ca2+ mobilization assay, LPA4; assay type: cell-based; settings: for EC50: agonist, Ca2+ mobilization
T1 construct: expressed in transfected cells
Procedure: (§1) Similarity searches were performed separately using each fingerprint to quantitate similarity. Hits meeting the 80% similarity threshold from each search were ranked based on the Tanimoto coefficient measure of similarity to a target molecule NSC12404, and the top 75 unique hits from each fingerprint search were selected for further analysis. The 225 compounds selected for further analysis were clustered based on Tanimoto coefficients calculated using Molecular ACCess System-key fingerprints (MACCS keys) and evaluated using the diversity subset function implemented in MOE. This selected a diverse subset of 27 compounds for biological evaluation by choosing the middle compounds in each cluster. These 27 compounds were tested in Ca^2+ mobilization assays at a concentration of 10 μM using stable cell lines individually expressing LPA2 and also in vector-transfected control cells. Hits activating LPA2 were further tested using cells expressing the other established and putative LPA GPCRs. […] They arbitrarily selected GRI977143 for further characterization in cell-based assays.
(§2) J Biol Chem (2009) 284(25): 17304-17319). […] The cells were loaded with Fura-2-acetoxymethyl esther (Fura-2/AM) in Krebs buffer containing 0.01% pluronic acid for 30 min and rinsed with Krebs buffer before measuring Ca^2+ mobilization. The ratio of peak emissions at 510 nm after 2 min of ligand addition was determined for excitation wavelengths of 340 nm/380 nm. All samples were run in quadruplicate. […] The half maximally effective concentration (EC50), and inhibitory constant (Ki) values were calculated by fitting a sigmoid function to dose-response data points using KaleidaGraph software (version 4.1, Synergy Software; […]).
(§3) Mouse embryonic fibroblast (MEF) cells were isolated from E13.5 LPA1&2 double knockout (DKO) embryos. MEFs were transduced with empty vector or LPA2-containing lentiviruses and selected with 1.5 μg/ml puromycin. Cells were maintained in Dulbecco's modified Eagle medium (DMEM) supplemented with 10% (V/V) fetal bovine serum (FBS), 2 mM L-glutamine, 100 U/mL penicillin, and 100 μg/mL streptomycin. Serum-free medium contained 0.1% (W/V) BSA in DMEM. The rat intestinal epithelial cell line 6 (IEC-6) was obtained from the American Type Culture Collection (Rockville, Md.) at passage 13; passages 16-21 were used in all experiments. IEC-6 cells were maintained in a humidified 37° C. incubator in an atmosphere of 90% air and 10% CO2. Growth medium consisted of DMEM supplemented with 5% heat inactivated FBS, 10 μg/mL insulin, and 50 μg/mL gentamycin. The composition of the serum-starvation medium was the same as that of the full growth medium except that it contained no FBS. The McArdle rat hepatoma cell line (RH7777) stably expressing LPA2 receptors was a gift from Dr. Fumikazu Okajima (Gunma University, Maebashi, Japan). RH7777 cells stably expressing LPA1 or LPA3 receptors were generated in-house and had been characterized earlier. Wild type and LPA receptor (LPAR) stably transfected RH7777 cells were grown in DMEM supplemented with 10% FBS and 2 mM L-glutamine in the presence of 250 μg/ml G418. Chinese hamster ovary (CHO) cells stably expressing either vector or LPA4 receptor were a kind gift from Dr. Takao Shimizu (Tokyo University; Tokyo, Japan). Cells were cultured in Ham's F12 medium containing 10% FBS, 2 mM L-glutamine, and 350 μg/ml G418. Rat neuroblastoma cells (B103) were transduced with the lentivirus harboring wild type of FLAG-LPA5 and selected with puromycin to establish the stable cell lines. The stable cells were maintained in DMEM supplemented with 10% FBS and 0.4 μg/ml puromycin. GPR87- and P2Y10-expressing CHO cells and vector-transfected control cells were a gift from Dr. Norihisha Fujita (Ritsumeikan University; Shiga, Japan).

LPA5 = target: T2, LPA5 (Homo sapiens, UniProt Q9H1C0); test: LPA receptor-mediated Ca2+ mobilization assay, LPA5; assay type: cell-based; settings: agonist
T2 construct: FLAG (N); expressed in transfected cells; host or cells: B103 rat neuroblastoma, lentiviral transduction, puromycin selection
T2 sequence (Q9H1C0 whole entry, species assumed): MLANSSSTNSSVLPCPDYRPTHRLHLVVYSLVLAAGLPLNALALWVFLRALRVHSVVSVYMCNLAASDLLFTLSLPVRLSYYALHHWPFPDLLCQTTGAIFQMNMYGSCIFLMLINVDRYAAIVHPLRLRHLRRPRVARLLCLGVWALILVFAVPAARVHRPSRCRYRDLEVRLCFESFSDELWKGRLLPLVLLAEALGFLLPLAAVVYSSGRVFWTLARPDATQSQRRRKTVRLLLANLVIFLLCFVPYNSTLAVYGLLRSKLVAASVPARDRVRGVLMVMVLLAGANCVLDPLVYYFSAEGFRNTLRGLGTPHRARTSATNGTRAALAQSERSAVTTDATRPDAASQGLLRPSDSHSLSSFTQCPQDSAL
Procedure: as §1, §2
Mouse embryonic fibroblast (MEF) cells were isolated from E13.5 LPA1&2 double knockout (DKO) embryos. MEFs were transduced with empty vector or LPA2-containing lentiviruses and selected with 1.5 μg/ml puromycin. Cells were maintained in Dulbecco's modified Eagle medium (DMEM) supplemented with 10% (V/V) fetal bovine serum (FBS), 2 mM L-glutamine, 100 U/mL penicillin, and 100 μg/mL streptomycin. Serum-free medium contained 0.1% (W/V) BSA in DMEM. The rat intestinal epithelial cell line 6 (IEC-6) was obtained from the American Type Culture Collection (Rockville, Md.) at passage 13; passages 16-21 were used in all experiments. IEC-6 cells were maintained in a humidified 37° C. incubator in an atmosphere of 90% air and 10% CO2. Growth medium consisted of DMEM supplemented with 5% heat inactivated FBS, 10 μg/mL insulin, and 50 μg/mL gentamycin. The composition of the serum-starvation medium was the same as that of the full growth medium except that it contained no FBS. […]

LPA3 = target: T3, LPA3 (Homo sapiens, UniProt Q9UBY5); test: LPA receptor-mediated Ca2+ mobilization assay, LPA3; assay type: cell-based; settings: for LPA3 Imax (%): inhibition by 10 μM compound of ~EC75 LPA 18:1 Ca2+ response; for inhibition of LPA3 Ca2+ response: 10 μM, ~EC75 LPA 18:1
T3 construct: expressed in transfected cells
T3 sequence (Q9UBY5 1-353): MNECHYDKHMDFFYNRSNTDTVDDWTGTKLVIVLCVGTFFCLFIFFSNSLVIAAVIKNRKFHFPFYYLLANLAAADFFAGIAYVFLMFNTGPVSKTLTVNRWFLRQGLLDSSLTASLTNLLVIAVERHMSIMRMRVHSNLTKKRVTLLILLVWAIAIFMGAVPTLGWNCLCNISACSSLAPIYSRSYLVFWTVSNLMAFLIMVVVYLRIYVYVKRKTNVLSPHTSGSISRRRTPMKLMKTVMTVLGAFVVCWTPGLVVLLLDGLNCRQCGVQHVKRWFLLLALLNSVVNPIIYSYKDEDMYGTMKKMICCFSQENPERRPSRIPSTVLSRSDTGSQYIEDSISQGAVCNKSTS
Procedure: as §1, §2, §3

[1] = test system: vector- and LPA2-transduced MEF cells; test: Adriamycin-induced apoptosis, caspase activity assay; assay type: cell-based, mouse; settings: for decrease in caspase-8 activation / decrease in caspase 9 activation: GRI977143 10 μM; for protection against caspase 3 and 7 activation: GRI977143 above 3 μM; for inhibition of caspase 3/7 activation: 10 μM
Procedure: Experiments were performed on vector- and LPA2-transduced MEF cells. To measure caspase 3, 7, 8, or 9 activity and DNA fragmentation, cells were plated in 48-well plates (2×10^4 cells/well). To detect PARP-1 cleavage and Bax translocation, 1.5×10^6 cells were plated in 10-cm dishes and cultured overnight in full growth medium. The next morning, the growth medium was replaced by serum-starvation medium and cells were pretreated for 1 h with LPA (1-10 μM), OTP (1-10 μM), GRI977143 (1-10 μM), or vehicle. Caspase activity, DNA fragmentation, PARP-1 cleavage, and Bax translocation were measured 5 h after incubation with 1.7 μM Adriamycin or 24 h after serum withdrawal.
Caspase-Glow® 3/7, Caspase-Glow® 8 and Caspase-Glow® 9 reagents were purchased from Promega (Madison, Wis.) and used according to the manufacturer's instructions. Briefly, cells were lysed by adding 50 μl of lysis reagent per well, followed by shaking for 30 min at room temperature. […] lysate were transferred to a 96-well white-wall plate, and luminescence was measured using a BioTek® (Winooski, Vt.) plate reader.

[2] = LPA2-transduced MEF, LPA and OTP 1 μM
[3] = vector-transduced MEF, LPA and OTP 1 μM

T1 sequence (Q99677 whole entry, species assumed): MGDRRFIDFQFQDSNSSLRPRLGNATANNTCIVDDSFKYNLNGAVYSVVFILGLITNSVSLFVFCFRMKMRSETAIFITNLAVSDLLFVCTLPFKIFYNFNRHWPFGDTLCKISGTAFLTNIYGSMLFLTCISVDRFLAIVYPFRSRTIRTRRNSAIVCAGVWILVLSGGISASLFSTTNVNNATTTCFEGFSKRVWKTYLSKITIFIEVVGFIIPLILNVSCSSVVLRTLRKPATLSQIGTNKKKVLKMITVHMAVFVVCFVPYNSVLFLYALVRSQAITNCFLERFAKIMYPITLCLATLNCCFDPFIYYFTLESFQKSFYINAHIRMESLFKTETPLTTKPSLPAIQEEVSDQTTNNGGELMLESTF

Molecule	inhibition of LPA4 Ca2+ response (LPA4; 10 μM, ~EC75 LPA 18:1)	LPA4 Imax (%) (LPA4; inhibition by 10 μM compound of ~EC75 LPA 18:1 Ca2+ response)	EC50 (LPA5)	LPA3 Imax (%) (LPA3)	EC50 (LPA4)	inhibition of LPA3 Ca2+ response (LPA3)	Ki (LPA3; antagonist, Ca2+ mobilization, read-out: LPA3 K)	decrease in caspase-8 activation [1, 2]	decrease in caspase 9 activation ([1]; LPA2-transduced MEF, OTP 1 μM)	protection against caspase 3 and 7 activation ([1]; LPA2-transduced MEF)	inhibition of caspase 3/7 activation ([1]; vector-transduced MEF)	decrease in caspase 9 activation [1, 3]	decrease in caspase 8 activation [1, 3]	EC50 (LPA3; agonist, Ca2+ mobilization)
O=C(O)c1cc(Cl)c(Cl)cc1C(=O)Nc1ccc2c(c1)C(=O)c1ccccc1-2 [Compound H2L5547924]	partially inhibited	51%	> 10 µM	66%										
O=C(O)c1ccccc1C(=O)Nc1ccc2c(c1)C(=O)c1ccccc1C2=O [Compound H2L5828102]			> 10 µM	100%	> 10 µM	fully inhibited	1.5 µM							
O=C(O)c1ccccc1SCCCN1C(=O)c2cccc3cccc(c23)C1=O [GRI977143]				55%	> 10 µM	inhibited LPA3		41±5%	46±4%	significant protection	did not attenuate	did not affect		
CCCCCCCC/C=C\CCCCCCCC(=O)OC[C@@H](O)COP(=O)(O)O [LPA 18:1, Lysophosphatidic acid (18:1)]								36±1%		protected	26±1%		12±2%	
O=C(O)c1ccccc1C(=O)Nc1ccc2c(c1)C(=O)c1ccccc1-2 [NSC12404]			> 10 µM	61%	> 10 µM	inhibited LPA3								
octadecenyl thiophosphate [OTP]			0.003 µM		2 µM			33±2%	38±1%	protected	did not attenuate		15±5%	0.297 µM
